Active and inactive are the calls of the source. The rule behind the calls is not given here.
Columns and labels:
Mus musculus [1] = experiment: Antitumor activity against mouse BA/F3 cells expressing Tel-JAK2 xenografted in NCr mouse assessed as reduction of phosphorylated Stat5 level in spleen at 30 mg/kg, po after 12 hrs by Western blotting; format: functional, organism-based; parameters: dose 30 mg/kg; settings: BaF3
BaF3 = experiment: Antitumor activity against mouse BA/F3 cells expressing Tel-JAK2-luc xenografted in NCr mouse assessed as reduction of bioluminescent signal at 50 mg/kg, po bid measured on day 9 post-tumor cell implantation relative to control; format: functional
[2] = target: T1, Signal transducer and activator of transcription 5A (Homo sapiens) (UniProt P42229); settings: HEL, 0.3 uM
T1 sequence (whole entry): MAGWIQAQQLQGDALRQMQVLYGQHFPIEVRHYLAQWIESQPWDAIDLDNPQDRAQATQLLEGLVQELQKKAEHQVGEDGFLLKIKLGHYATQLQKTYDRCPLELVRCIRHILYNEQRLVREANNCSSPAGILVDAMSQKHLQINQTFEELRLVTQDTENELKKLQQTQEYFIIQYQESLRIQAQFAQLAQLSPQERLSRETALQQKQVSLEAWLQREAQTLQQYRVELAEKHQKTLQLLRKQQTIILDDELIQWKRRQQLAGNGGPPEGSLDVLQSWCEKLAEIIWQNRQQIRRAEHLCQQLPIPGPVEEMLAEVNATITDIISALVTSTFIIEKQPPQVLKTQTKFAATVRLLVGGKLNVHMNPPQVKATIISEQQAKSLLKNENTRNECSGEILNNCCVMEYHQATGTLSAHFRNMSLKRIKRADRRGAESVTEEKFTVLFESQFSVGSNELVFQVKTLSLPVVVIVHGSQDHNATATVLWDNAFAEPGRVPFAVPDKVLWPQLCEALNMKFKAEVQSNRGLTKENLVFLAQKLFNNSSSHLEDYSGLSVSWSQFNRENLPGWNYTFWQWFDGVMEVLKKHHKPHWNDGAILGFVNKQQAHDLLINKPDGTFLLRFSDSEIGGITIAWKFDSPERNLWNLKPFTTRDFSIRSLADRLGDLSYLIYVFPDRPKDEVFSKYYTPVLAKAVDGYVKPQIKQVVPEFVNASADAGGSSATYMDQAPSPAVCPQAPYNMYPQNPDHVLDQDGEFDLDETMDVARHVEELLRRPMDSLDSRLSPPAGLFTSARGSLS
Description: Inhibition of Stat5 phosphorylation in human HEL cells at 0.3 uM after 5 mins by Western blotting

SW-620 = experiment: Cell cycle arrest in human SW620 cells assessed as accumulation at G2/M phase at 3.3 uM after 24 hrs by flow cytometry; format: functional, cell-based
[3] = target: Signal transducer and activator of transcription 3 (Homo sapiens) (UniProt P40763); settings: HEL, 0.3 uM
Description: Inhibition of Stat3 phosphorylation in human HEL cells at 0.3 uM after 5 mins by Western blotting

Mus musculus [4] = experiment: Antitumor activity against mouse BA/F3 cells expressing Tel-JAK2 xenografted in po dosed NCr mouse assessed as reduction of phosphorylated Stat5 level in spleen by Western blotting; format: functional, organism-based; settings: BaF3
Mus musculus [5] = experiment: Antitumor activity against mouse BA/F3 cells expressing Tel-JAK2 xenografted in NCr mouse assessed as reduction of phosphorylated Stat5 level in spleen at 10 mg/kg, po after 12 hrs by Western blotting; format: functional, organism-based; parameters: dose 10 mg/kg; settings: BaF3

Chain of Signal transducer and activator of transcription 3 (Homo sapiens) (P40763 whole entry): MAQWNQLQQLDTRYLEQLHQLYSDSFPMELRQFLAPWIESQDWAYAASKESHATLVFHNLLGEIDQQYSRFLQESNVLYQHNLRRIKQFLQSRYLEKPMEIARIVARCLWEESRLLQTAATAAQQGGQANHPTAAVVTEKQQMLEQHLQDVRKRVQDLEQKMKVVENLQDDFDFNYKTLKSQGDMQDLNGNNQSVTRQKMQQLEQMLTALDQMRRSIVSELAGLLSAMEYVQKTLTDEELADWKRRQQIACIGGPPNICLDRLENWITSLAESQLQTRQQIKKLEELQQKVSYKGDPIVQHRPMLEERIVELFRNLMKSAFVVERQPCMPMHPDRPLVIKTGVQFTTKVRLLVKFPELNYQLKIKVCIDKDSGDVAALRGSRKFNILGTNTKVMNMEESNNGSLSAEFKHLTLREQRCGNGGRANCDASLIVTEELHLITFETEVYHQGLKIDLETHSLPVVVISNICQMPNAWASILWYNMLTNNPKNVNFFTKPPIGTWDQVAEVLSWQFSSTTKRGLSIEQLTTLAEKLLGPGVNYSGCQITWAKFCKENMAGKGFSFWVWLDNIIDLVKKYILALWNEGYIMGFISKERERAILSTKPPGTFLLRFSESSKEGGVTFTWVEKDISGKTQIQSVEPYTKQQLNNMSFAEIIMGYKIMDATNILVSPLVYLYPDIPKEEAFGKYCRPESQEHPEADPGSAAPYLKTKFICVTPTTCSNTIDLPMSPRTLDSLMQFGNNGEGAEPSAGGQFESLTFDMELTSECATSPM

inhibition [2]: Active
inhibition [3]: Active
Compound: Cc1cc(Nc2nc(N[C@@H](C)c3ncc(F)cn3)ncc2Cl)[nH]n1
Activity (Mus musculus [1]): Active
Activity (BaF3): Dose-dependent effect
Activity (SW-620): Active
Activity (Mus musculus [4]): Dose-dependent effect
Activity (Mus musculus [5]): inactive

From ChEMBL document CHEMBL1649076, “Discovery of 5-chloro-N2-[(1S)-1-(5-fluoropyrimidin-2-yl)ethyl]-N4-(5-methyl-1H-pyrazol-3-yl)pyrimidine-2,4-diamine (AZD1480) as a novel inhibitor of the Jak/Stat pathway” (J Med Chem, 2011)
